Experimental data reported in PubChem BioAssay AID1845209 (Molecular Pharmacology Branch, DTP, NCI, 2023).

Tested on: NCI-H211 tumor spheroids, viability percent test/control
Test: Anticancer human tumor NCI-H211 cell line growth inhibition;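 note: spheroids exposed to agents for seven days before readout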
Settings: spheroids with HUVEC and MSC; for IC50: curve of first compound; for viability, T/C: stronger effect = lower value
Method in brief: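 Single agents and combinations were tested on spheroids built from tumor cells plus HUVEC and hMSC, at half-log dilutions starting at or near clinical Cmax, else 10 microM; final DMSO 0.25% (v/v).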

[1] = second compound 30 pM, first compound 0.00949 µM
[2] = second compound 30 pM, first compound 0.03 µM
[3] = second compound 30 pM, first compound 0.0949 µM
[4] = second compound 30 pM, first compound 0.3 µM
[5] = second compound 30 pM, first compound 0.949 µM
[6] = second compound 30 pM, first compound 3 µM
[7] = second compound 94.9 pM, first compound 0.00949 µM
[8] = second compound 94.9 pM, first compound 0.03 µM
[9] = second compound 94.9 pM, first compound 0.0949 µM
[10] = second compound 94.9 pM, first compound 0.3 µM
[11] = second compound 94.9 pM, first compound 0.949 µM
[12] = second compound 94.9 pM, first compound 3 µM
[13] = second compound 0.0003 µM, first compound 0.00949 µM
[14] = second compound 0.0003 µM, first compound 0.03 µM
[15] = second compound 0.0003 µM, first compound 0.0949 µM
[16] = second compound 0.0003 µM, first compound 0.3 µM
[17] = second compound 0.0003 µM, first compound 0.949 µM
[18] = second compound 0.0003 µM, first compound 3 µM
[19] = second compound 0.000949 µM, first compound 0.00949 µM
[20] = second compound 0.000949 µM, first compound 0.03 µM
[21] = second compound 0.000949 µM, first compound 0.0949 µM
[22] = second compound 0.000949 µM, first compound 0.3 µM
[23] = second compound 0.000949 µM, first compound 0.949 µM
[24] = second compound 0.000949 µM, first compound 3 µM
[25] = second compound 0.003 µM, first compound 0.00949 µM
[26] = second compound 0.003 µM, first compound 0.03 µM
[27] = second compound 0.003 µM, first compound 0.0949 µM
[28] = second compound 0.003 µM, first compound 0.3 µM
[29] = second compound 0.003 µM, first compound 0.949 µM
[30] = second compound 0.003 µM, first compound 3 µM

Row | Compound | IC50 (second compound 30 pM) [nM] | IC50 (second compound 94.9 pM) [nM] | IC50 (second compound 0.0003 µM) [nM] | IC50 (second compound 0.000949 µM) [nM] | IC50 (second compound 0.003 µM) [nM] | viability, T/C [3] [%] | viability, T/C [4] [%] | viability, T/C [5] [%] | viability, T/C [6] [%] | viability, T/C [9] [%] | viability, T/C [10] [%] | viability, T/C [11] [%] | viability, T/C [12] [%] | viability, T/C [15] [%] | viability, T/C [16] [%] | viability, T/C [17] [%] | viability, T/C [18] [%] | viability, T/C [21] [%] | viability, T/C [22] [%] | viability, T/C [23] [%] | also measured
1 | CNCc1ccc(-c2cc(-c3nc(-c4ccc(S(=O)(=O)C(C)C)cc4)cnc3N)on2)cc1 + COc1cc2c(cc1O)CCNC21CSC2c3c(OC(C)=O)c(C)c4c(c3C(COC1=O)N1C(O)C3Cc5cc(C)c(OC)c(O)c5C(C21)N3C)OCO4 | 22.8 | < 9.49 | < 9.49 | < 9.49 | < 9.49 | 2.15 | 0.93 | 0.77 | 0.11 | 1.02 | 0.78 | 0.59 | 0.11 | 0.73 | 0.7 | 0.5 | 0.1 | 0.88 | 0.66 | 0.34 | viability, T/C [1]: 93.2%; viability, T/C [2]: 36.2%; viability, T/C [7]: 8.16%; viability, T/C [8]: 1.5%; viability, T/C [13]: 0.82%; viability, T/C [14]: 0.84%; viability, T/C [19]: 1.01%; viability, T/C [20]: 0.87%; viability, T/C [24]: 0.11%; viability, T/C [25]: 0.11%; viability, T/C [26]: 0.11%; viability, T/C [27]: 0.09%; viability, T/C [28]: 0.1%; viability, T/C [29]: 0.1%; viability, T/C [30]: 0.15%
2 | Cc1sc2c(c1C)C(c1ccc(Cl)cc1)=NC(CC(=O)Nc1ccc(O)cc1)c1nnc(C)n1-2 (stereo not given) + COc1cc2c(cc1O)CCNC21CSC2c3c(OC(C)=O)c(C)c4c(c3C(COC1=O)N1C(O)C3Cc5cc(C)c(OC)c(O)c5C(C21)N3C)OCO4 | < 9.49 | < 9.49 | < 9.49 | < 9.49 | < 9.49 | 0.66 | 0.42 | 0.31 | 0.33 | 0.53 | 0.42 | 0.33 | 0.43 | 0.45 | 0.61 | 0.4 | 0.4 | 0.47 | 0.25 | 0.04 | viability, T/C [1]: 45.6%; viability, T/C [2]: 4.36%; viability, T/C [7]: 4.74%; viability, T/C [8]: 0.91%; viability, T/C [13]: 0.79%; viability, T/C [14]: 0.61%; viability, T/C [19]: 0.76%; viability, T/C [20]: 0.61%; viability, T/C [24]: 0.09%; viability, T/C [25]: 0.1%; viability, T/C [26]: 0.09%; viability, T/C [27]: 0.09%; viability, T/C [28]: 0.08%; viability, T/C [29]: 0.1%; viability, T/C [30]: 0.3%
3 | Cn1ncnc1[C@H]1c2n[nH]c(=O)c3cc(F)cc(c23)N[C@@H]1c1ccc(F)cc1 + COc1cc2c(cc1O)CCNC21CSC2c3c(OC(C)=O)c(C)c4c(c3C(COC1=O)N1C(O)C3Cc5cc(C)c(OC)c(O)c5C(C21)N3C)OCO4 | < 9.49 | < 9.49 | < 9.49 | < 9.49 | < 9.49 | 0.93 | 0.66 | 0.63 | 1 | 0.72 | 0.82 | 0.82 | 0.85 | 0.92 | 0.85 | 0.86 | 1.35 | 0.76 | 1.25 | 0.97 | viability, T/C [1]: 0.83%; viability, T/C [2]: 0.69%; viability, T/C [7]: 0.99%; viability, T/C [8]: 0.82%; viability, T/C [13]: 0.98%; viability, T/C [14]: 0.93%; viability, T/C [19]: 1%; viability, T/C [20]: 0.89%; viability, T/C [24]: 0.5%; viability, T/C [25]: 0.48%; viability, T/C [26]: 0.12%; viability, T/C [27]: 0.1%; viability, T/C [28]: 0.1%; viability, T/C [29]: 0.11%; viability, T/C [30]: 0.4%
4 | O=C(c1cc(Cc2n[nH]c(=O)c3ccccc23)ccc1F)N1CCN(C(=O)C2CC2)CC1 + COc1cc2c(cc1O)CCNC21CSC2c3c(OC(C)=O)c(C)c4c(c3C(COC1=O)N1C(O)C3Cc5cc(C)c(OC)c(O)c5C(C21)N3C)OCO4 | 95.2 | < 94.9 | < 94.9 | < 94.9 | < 94.9 | 50.5 | 16.1 | 1.62 | 0.78 | 2.31 | 1.2 | 0.86 | 0.78 | 1.39 | 0.85 | 0.91 | 0.8 | 0.69 | 1.29 | 1.05 | viability, T/C (second compound 30 pM, first compound 9.49 µM): 0.73%; viability, T/C (second compound 30 pM, first compound 30 µM): 0.73%; viability, T/C (second compound 94.9 pM, first compound 9.49 µM): 0.78%; viability, T/C (second compound 94.9 pM, first compound 30 µM): 0.95%; viability, T/C (second compound 0.0003 µM, first compound 9.49 µM): 1.69%; viability, T/C (second compound 0.0003 µM, first compound 30 µM): 0.79%; viability, T/C [24]: 0.61%; viability, T/C (second compound 0.000949 µM, first compound 9.49 µM): 0.73%; viability, T/C (second compound 0.000949 µM, first compound 30 µM): 0.72%; viability, T/C [27]: 0.44%; viability, T/C [28]: 0.28%; viability, T/C [29]: 0.1%; viability, T/C [30]: 0.21%; viability, T/C (second compound 0.003 µM, first compound 9.49 µM): 0.25%; viability, T/C (second compound 0.003 µM, first compound 30 µM): 0.2%
